Earlier results on two compounds are cited in patent US20040198651A1, “Secreted proteins” (priority 2001, published 2004).

For data set [1] the following is noted: relative to progesterone.
For data set [2] the following is noted: intranasal; relative to hydrocortisone.

“6α-methyl-17-hydroxyprogesterone [medroxyprogesterone]”: in data set [1], the “pharmacological activity greater than progesterone” value is “about 15 times”.
Turning to `C[C@H]1C[C@H]2[C@@H]3CCC4=CC(=O)C=C[C@]4(C)[C@@]3(Cl)[C@@H](O)C[C@]2(C)[C@@]1(O)C(=O)CO` [beclomethasone], the “anti-inflammatory and vasoconstrictive effects greater than those produced by hydrocortisone” value in data set [2] is 5000 times.
